These results are taken from patent publication US20090029992A1, “SUBSTITUTED PYRAZOLE COMPOUNDS” (priority 2007, published 2009).

The term IC50 denotes the concentration needed to halve the response being measured.

Common to all, as to assay type: biochemical
Assay [1] concerns the target T1, N-terminal His-tagged human Src (Homo sapiens, UniProt P12931).
T1 construct: His (N); purchased Upstate USA Inc, 706 Forest Street, Charlottesville, Va
The experiment in a line: Src kinase inhibition assay (33P-ATP filter assay). The note with it: 40 minutes at room temperature.

The target in assay [2] is T2, recombinant Aurora A (Homo sapiens, UniProt O14965).
T2 construct: purchased Upstate, Lake Placid, N.Y
T2 sequence (O14965 1-403): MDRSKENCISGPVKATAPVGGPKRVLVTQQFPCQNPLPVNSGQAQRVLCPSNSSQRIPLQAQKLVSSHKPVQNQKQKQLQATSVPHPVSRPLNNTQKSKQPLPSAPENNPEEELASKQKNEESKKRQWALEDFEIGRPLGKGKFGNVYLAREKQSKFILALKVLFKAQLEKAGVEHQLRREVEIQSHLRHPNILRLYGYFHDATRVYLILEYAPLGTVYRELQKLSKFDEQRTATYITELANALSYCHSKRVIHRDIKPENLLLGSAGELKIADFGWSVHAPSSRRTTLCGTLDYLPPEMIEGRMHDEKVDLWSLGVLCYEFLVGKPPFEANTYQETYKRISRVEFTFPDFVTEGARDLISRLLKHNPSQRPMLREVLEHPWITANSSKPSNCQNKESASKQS
The experiment in a line: Aurora A (Aurora 2) inhibition assay, Z'-Lyte kinase assay. To be noted: ATP 10 μM, 1 h. A digest of the protocol:
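Z'-Lyte FRET assay: Aurora A (200-500 ng/mL final), Ser/Thr 1 peptide (2 μM) and ATP (10 μM) in 50 mM HEPES pH 7.5, 10 mM MgCl2, 5 mM EGTA, 0.05% Brij-35, 2 mM DTT, 1 h at room temperature. Coumarin/fluorescein emission ratio converted to percent phosphorylation; dose-response curves plotted.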

In assay [3] the target is T3, Aurora B kinase (Homo sapiens, UniProt Q96GD4).
T3 construct: purchased BPS Biosciences, San Diego, Calif
The experiment in a line: Aurora B (Aurora 1) inhibition assay. To be noted: ATP 50 μM, 16 h. The protocol:
Compounds were tested for their potency against recombinant Aurora A (Upstate, Lake Placid, N.Y.) using the PanVera Z′-Lyte kinase assay kit—Ser/Thr 1 peptide (Invitrogen, Carlsbad, Calif.). Assays were carried out in kinase assay buffer (50 mM HEPES, pH 7.5, 10 mM MgCl2, 5 mM EGTA, 0.05% Brij-35, 2 mM DTT). Test compounds were initially dissolved in DMSO at 100× the highest tested concentration, then serially diluted to 4× test concentrations in kinase assay buffer. Next, Aurora A (final concentration 200-500 ng/mL), Z′-Lyte Ser/Thr 1 peptide (final concentration 2 μM) and ATP (final concentration 10 μM) were added according to the manufacturer's instructions. Assays were carried out in half-area 96-well white polystyrene assay plates (Corning, Corning, N.Y.) in a final volume of 20 μl. The reaction was allowed to proceed for 1 h at room temperature in the dark, at which point the development reagent and stop reagent were added according to the manufacturer's instructions. Coumarin (Ex. 400 nm, Em. 465 nm) and fluorescein (Ex. 400 nm, Em. 565 nm) fluorescence values were measured on a SpectraFluor Plus plate reader (Tecan, Durham, N.C.). The emission ratio (coumarin/fluorescein) was determined and used to calculate the percent phosphorylation for each well. Wells containing substrate but no kinase and wells containing a phosphopeptide control were used to set 0% and 100% phosphorylation values, respectively. Typically 20-40% of the substrate was phosphorylated in wells without inhibitor. Dose-response curves of relative Aurora A activity vs. inhibitor concentration were plotted with Grafit (Erithacus Software, Horley, Surrey, UK).
Assays for Aurora B kinase inhibition were carried out similarly to those for Aurora A kinase (see above) with the following modifications. Aurora B kinase (BPS Biosciences, San Diego, Calif.) was used as the enzyme, at a concentration was 2.5 μg/mL. The ATP concentration was 50 μM, and the kinase reaction was allowed to proceed for 16 h. Sodium orthovanadate (20 μM) was added to the buffer to inhibit contaminating phosphatases.

Some results are limits rather than exact numbers.

T1 sequence (P12931 whole entry): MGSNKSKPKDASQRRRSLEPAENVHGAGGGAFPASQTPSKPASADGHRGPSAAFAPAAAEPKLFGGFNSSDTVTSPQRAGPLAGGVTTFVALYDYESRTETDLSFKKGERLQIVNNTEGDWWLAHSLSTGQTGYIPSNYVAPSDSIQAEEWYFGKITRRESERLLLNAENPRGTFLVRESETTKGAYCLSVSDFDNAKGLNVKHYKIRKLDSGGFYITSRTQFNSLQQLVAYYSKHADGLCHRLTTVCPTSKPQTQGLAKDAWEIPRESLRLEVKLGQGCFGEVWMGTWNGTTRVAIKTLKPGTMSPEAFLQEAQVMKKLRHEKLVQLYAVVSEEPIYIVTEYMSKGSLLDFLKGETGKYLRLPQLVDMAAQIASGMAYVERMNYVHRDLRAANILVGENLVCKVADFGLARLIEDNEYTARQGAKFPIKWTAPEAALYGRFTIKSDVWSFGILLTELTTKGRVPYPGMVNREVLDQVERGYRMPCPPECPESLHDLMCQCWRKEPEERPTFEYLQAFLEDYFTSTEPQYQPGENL
T3 sequence (Q96GD4 whole entry): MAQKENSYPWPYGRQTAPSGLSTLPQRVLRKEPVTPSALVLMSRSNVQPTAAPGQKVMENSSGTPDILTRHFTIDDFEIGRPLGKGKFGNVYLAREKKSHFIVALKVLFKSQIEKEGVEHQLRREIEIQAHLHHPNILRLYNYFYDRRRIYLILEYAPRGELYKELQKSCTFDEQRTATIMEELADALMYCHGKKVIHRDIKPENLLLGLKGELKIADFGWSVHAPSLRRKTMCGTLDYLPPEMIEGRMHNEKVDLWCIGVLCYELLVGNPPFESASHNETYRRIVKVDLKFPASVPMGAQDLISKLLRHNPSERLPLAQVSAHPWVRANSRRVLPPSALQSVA

As to `COC(=O)c1cccc(-c2nc(Nc3cc(C)[nH]n3)cc(N3CCN(C)CC3)n2)c1` [Example 166, methyl 3-(4-(5-methyl-1H-pyrazol-3-ylamino)-6-(4-methylpiperazin-1-yl)pyrimidin-2-yl)benzoate], the IC50 in assay [1] was at most 100 nM; in assay [2], at most 100 nM; in assay [3], at most 1000 nM.
For `Cc1cc(Nc2cc(N3CCN(C)CC3)nc(-c3cccc(Cl)c3)n2)n[nH]1` [Compound 36, 2-(3-chlorophenyl)-N-(5-methyl-1H-pyrazol-3-yl)-6-(4-methylpiperazin-1-yl)pyrimidin-4-amine], the results for the half-maximal inhibitory concentration (IC50) in assay [1], in assay [2] and in assay [3] were at most 100 nM, at most 100 nM and at most 1000 nM, respectively.
`COc1cc(OC)cc(-c2nc(Nc3cc(C)[nH]n3)cc(N3CCN(C)CC3)n2)c1` [Example 191, 2-(3,5-dimethoxyphenyl)-N-(5-methyl-1H-pyrazol-3-yl)-6-(4-methylpiperazin-1-yl)pyrimidin-4-amine]: the IC50 in assay [1] was at most 100 nM; in assay [2], at most 100 nM; in assay [3], at most 1000 nM.
As to `Cc1cc(Nc2cc(N3CCN(C)CC3)nc(-c3ccc4c(c3)OCO4)n2)n[nH]1` [Example 139, 2-(benzo[d][1,3]dioxol-5-yl)-N-(5-methyl-1H-pyrazol-3-yl)-6-(4-methylpiperazin-1-yl)pyrimidin-4-amine], the IC50 in assay [1] was at most 100 nM; in assay [2] it was at most 100 nM; in assay [3], at most 1000 nM.
For `COc1cccc(-c2nc(Nc3cc(C)[nH]n3)cc(N3CCN(C)CC3)n2)c1` [Compound 42, 2-(3-methoxyphenyl)-N-(5-methyl-1H-pyrazol-3-yl)-6-(4-methylpiperazin-1-yl)pyrimidin-4-amine], the values for the IC50 in assay [1], in assay [2] and in assay [3] were at most 100 nM, at most 100 nM and at most 1000 nM, respectively.
